{"source": "patent US20160338971A1", "about": "“NANO CO-ENCAPSULATION FOR THE PREVENTION AND TREATMENT OF VARIOUS DISORDERS” (priority 2015, published 2016)", "system": "Human Pancreatic cancer cells (MPanc)", "experiment": "Anti-cancer efficacy in athymic nude mice (subcutaneous pancreatic tumor implant)", "assay_type": "in vivo", "settings": "10 ug/implant in Matrigel near the tumor implant, tumors excised after 2 weeks, n=6 per group, Control 291 ± 25", "description": "Human Pancreatic cancer cells (MPanc) were implanted subcutaneously in nude mice at 1 million cells per site and after tumor growth to 150-200 mm3, animals were implanted with the various Nano composites near by the tumor implant.\nThe preceding data represents mean tumor weight±Standard Deviation (SD), n=6 per group, after 2 weeks of pancreatic cancer cell implant at 1 million per animals. Nano composites were implanted in a Matrigel near by the tumor implants", "data": [{"compound": "epigallocatechin-3-gallate [EGCG]", "values": [{"measurement": "Mean Pancreatic Tumor Weight (mg) ± SD", "value": "145.11 ± 17.8", "unit": "mg"}]}, {"compound": "Oc1ccc(C=Cc2cc(O)cc(O)c2)cc1", "note": "[Resveratrol]", "values": [{"measurement": "Mean Pancreatic Tumor Weight (mg) ± SD", "value": "198.44 ± 18.9", "unit": "mg"}]}, {"compound": "C=CCSSC=CC[S+]([O-])CC=C", "note": "(mixture of isomers) [Ajoene]", "values": [{"measurement": "Mean Pancreatic Tumor Weight (mg) ± SD", "value": "188.45 ± 15.6", "unit": "mg"}]}, {"compound": "C[S+]([O-])CCCCN=C=S", "note": "(centres unmarked) [Sulforaphan]", "values": [{"measurement": "Mean Pancreatic Tumor Weight (mg) ± SD", "value": "195.80 ± 21.2", "unit": "mg"}]}, {"compound": "O=C1O[C@H]2[C@@H]3OC(=O)c4cc(O)c(O)c(O)c4-c4c(O)c(O)c5oc(=O)c6c(c(O)c(O)c7oc(=O)c4c5c76)-c4c(cc(O)c(O)c4O)C(=O)OC[C@H]3OC(O)[C@@H]2OC(=O)c2cc(O)c(O)c(O)c2-c2c1cc(O)c(O)c2O", "note": "(mixture of isomers) [Punicalagin]", "values": [{"measurement": "Mean Pancreatic Tumor Weight (mg) ± SD", "value": "146.44 ± 16.4", "unit": "mg"}]}]}
